Patent publication US20060051526A1, “Process for producing cellulose acylate film” (Fuji Photo Film Co., Ltd., priority 2002, published 2006)

Key:
Assay type in all cases: physicochemical
[1] = Solubility test of the additive alone in dichloromethane/methanol mixed solvent (visual, after 4 days)
[2] = as above; details: for Solubility S0 (solids weight concentration at the dissolution limit): CH2Cl2/CH3OH 87/13
Method: The solubility of the functional additives was measured as follows.
1. Solutions were prepared by adjusting each concentration in a 50 cc screw cap bottle.
2. Allowed to stand at room temperature for 4 days. Here, the results of the solubility changed between 1 day and 4 days in some cases, and evaluation of the solubility was carried out after 4 days as a time when equilibrium was reached.
3. Samples were prepared in the same manner at other temperatures (20° C., 35° C.), and the solubility after allowing to stand for 4 days was visually inspected.
Predetermined amounts of Example Compounds I-(51) and I-(2) were weighed into a mixed solvent of dichloromethane and methanol, and the solubility was measured by changing the mixing ratio of the organic solvents.
The solubility (solids weight concentration at the dissolution limit was calculated as (C1+C2)/2 when the concentration limit at which it could be dissolved was C1 and the concentration limit at which it could not be dissolved was C2) of the retardation control agent in a mixed solvent having an initial methylene chloride/methanol composition ratio of 87/13 was defined as S0, and the solubility of the retardation control agent when the solvent composition changed, during drying, to 74/26 where the methanol wt % was the maximum was defined as S1. The temperature at which the solubility was measured is denoted by the figure in brackets.

[3] = Measurement of micro heat of solution (multi-purpose calorimeter MPC-110); details: for Degree of stabilization: Table 15; for Heat of solution ΔH0: solvent alone, 26.0° C.
Method: (2 Measurement of Micro Heat of Solution)
The heat of solution (dissolution enthalpy ΔH) of functional additives was measured as follows, using a multi-purpose calorimeter (MPC-110) manufactured by Tokyo Rikou as a micro heat of solution measuring instrument.
1. Solvent liquids and concentrated solutions were prepared beforehand in 1 L bottles.
2. Preparation of ampoule tubes
(1) Additives (powdered solid) were ground by a mortar and the granules were made uniform.
(2) A required amount (252 mg) of the additive to be measured was weighed into an ampoule tube for measurement of the micro heat of solution.
(3) The neck of the ampoule tube was heated sufficiently by a gas burner so as to seal the ampoule tube.
3. 50 g of the prepared solvent liquid or the concentrated solution was weighed into a measuring vessel. This amount was selected as an amount sufficient to immerse the ampoule tube in the solvent liquid when set in the measuring instrument.
4. The ampoule tube was set in the measuring instrument, which was equipped with an ampoule sealing mechanism, the measuring vessel was hermetically sealed with the ampoule sealing mechanism after confirming that the ampoule tube was immersed in the solvent liquid, it was placed in a constant temperature bath (26.0° C.), and stirring was started.
5. After confirming that the measuring instrument placed in the constant temperature bath had reached equilibrium temperature (about 8 to 12 hours) the ampoule tube was broken so as to mix the additive with the solvent liquid or the concentrated solution.
6. The total amount of heat generated was recorded.
7. The Joule's heat generated was measured by applying a known voltage to the measurement system for an appropriate time, and the recorded chart area for each measurement cell was calibrated using a known amount of heat.
8. The heat of solution of the sample was calculated from the Joule's heat and the measured sample area.
Shown in Table 11 are the solvent composition (wt %) and the solids composition (parts by weight) of the mother liquor when measuring the heat of solution, the type of retardation control agent sealed in the ampoule tube (Example Compounds I-(51) or I-(2)), and the results of measurement of the heat of solution.
The identification symbols of elements constituting the system are as follows: a denotes triacetylcellulose/plasticizer, b denotes triacetylcellulose, and c denotes plasticizer. For example, 2-87a denotes that the retardation control agent is the Example Compound I-(2), the solvent composition (wt %) is dichloromethane/methanol=87/13, and the solids constituting the system are triacetylcellulose and the plasticizer.
The heat of solution ΔH0 denotes the heat of solution (heat absorption) generated when there is no solid in the system (before breaking the ampoule tube) and the retardation control agent is dissolved in a solvent alone. […] The solids concentration of the system when saturation starts is defined as the saturation heat of solution solids concentration (wt %).
In all cases, when the solids concentration of the system is increased, the heat of solution either remains unchanged from that at a solids concentration of 0 wt % (the saturation heat of solution solids concentration is 0) or decreases and becomes saturated. […] This degree of stabilization is expressed as ΔH0−ΔHs, which is the decrease in the heat of solution.

[4] = 87/13, solids b: triacetylcellulose only
[5] = 87/13, solids c: plasticizer only

Solubility in dichloromethane/methanol mixed solvent (in words) ([1]; 20° C. and 35° C.): excellent
Difference S0 − S1 ([1]; 20° C., 87/13 vs 74/26): 10 wt %
Difference S0 − S1 ([1]; 20° C., 92/8 vs 91/9): 0 wt %
Ratio S1/S0 ([1]; 20° C., 92/8 vs 91/9): 1.000
Solubility S1 (solids weight concentration at the dissolution limit) ([1]; 20° C., CH2Cl2/CH3OH 74/26): 17.5 wt %
Solubility S1 (solids weight concentration at the dissolution limit) ([1]; 20° C., CH2Cl2/CH3OH 91/9): 32.5 wt %
Solubility S0 (solids weight concentration at the dissolution limit) ([1]; 20° C., CH2Cl2/CH3OH 92/8): 32.5 wt %
Difference S0 − S1 ([1]; 25° C., 87/13 vs 74/26): 10 wt %
Difference S0 − S1 ([1]; 25° C., 92/8 vs 91/9): 0 wt %
Ratio S1/S0 ([1]; 25° C., 92/8 vs 91/9): 1.000
Solubility S1 (solids weight concentration at the dissolution limit) ([1]; 25° C., CH2Cl2/CH3OH 74/26): 17.5 wt %
Solubility S0 (solids weight concentration at the dissolution limit) ([1]; 25° C., CH2Cl2/CH3OH 87/13): 27.5 wt %
Solubility S1 (solids weight concentration at the dissolution limit) ([1]; 25° C., CH2Cl2/CH3OH 91/9): 32.5 wt %
Solubility S0 (solids weight concentration at the dissolution limit) ([1]; 25° C., CH2Cl2/CH3OH 92/8): 32.5 wt %
Difference S0 − S1 ([1]; 35° C., 92/8 vs 91/9): 0 wt %
Ratio S1/S0 ([1]; 35° C., 92/8 vs 91/9): 1.000
Solubility S1 (solids weight concentration at the dissolution limit) ([1]; 35° C., CH2Cl2/CH3OH 91/9): 32.5 wt %
Solubility S0 (solids weight concentration at the dissolution limit) ([1]; 35° C., CH2Cl2/CH3OH 92/8): 32.5 wt %
Ratio S1/S0 ([2]; 20° C., 87/13 vs 74/26): 0.636
Solubility S0 (solids weight concentration at the dissolution limit) ([2]; 20° C.): 27.5 wt %
Ratio S1/S0 ([2]; 25° C., 87/13 vs 74/26): 0.636
Difference S0 − S1 ([2]; 35° C., 87/13 vs 74/26): 10 wt %
Ratio S1/S0 ([2]; 35° C., 87/13 vs 74/26): 0.692
Solubility S1 (solids weight concentration at the dissolution limit) ([2]; 35° C., CH2Cl2/CH3OH 74/26): 22.5 wt %
Solubility S0 (solids weight concentration at the dissolution limit) ([2]; 35° C.): 32.5 wt %
Degree of stabilization (ΔH0 − ΔHs) ([3]; 50/50, solids a): 0 kcal/mol
Saturation heat of solution solids concentration ([3]; 50/50, solids a): 0 wt %
Heat of solution ΔHs ([3]; 50/50, solids a: triacetylcellulose/plasticizer): 6.16 kcal/mol
Degree of stabilization (ΔH0 − ΔHs) ([3]; 74/26, solids a): 0 kcal/mol
Saturation heat of solution solids concentration ([3]; 74/26, solids a): 0 wt %
Heat of solution ΔHs ([3]; 74/26, solids a: triacetylcellulose/plasticizer): 6.97 kcal/mol
Degree of stabilization (ΔH0 − ΔHs) ([3]; 87/13, solids a: triacetylcellulose/plasticizer): 1.4 kcal/mol
Heat of solution ΔHs ([3]; 87/13, solids a: triacetylcellulose/plasticizer (TPP/BDP)): 6.1 kcal/mol
Degree of stabilization (ΔH0 − ΔHs) [3, 4]: 2 kcal/mol
Heat of solution ΔHs [3, 4]: 5.5 kcal/mol
Degree of stabilization (ΔH0 − ΔHs) [3, 5]: 1.1 kcal/mol
Heat of solution ΔHs [3, 5]: 6.4 kcal/mol
Degree of stabilization (ΔH0 − ΔHs) ([3]; 92/8, solids a): 1.38 kcal/mol
Saturation heat of solution solids concentration ([3]; 92/8, solids a): 7 wt %
Heat of solution ΔHs ([3]; 92/8, solids a: triacetylcellulose/plasticizer): 5.83 kcal/mol
Degree of stabilization (ΔH0 − ΔHs) ([3]; 100/0, solids a): 1.35 kcal/mol
Saturation heat of solution solids concentration ([3]; 100/0, solids a): 10 wt %
Heat of solution ΔHs ([3]; 100/0, solids a: triacetylcellulose/plasticizer): 5.29 kcal/mol
Degree of stabilization ([3]; dope Table 12, solvent composition 87/13): 1.40 kcal/mol
Degree of stabilization ([3]; dope Table 13, solvent composition 92/8): 1.38 kcal/mol
Degree of stabilization ([3]; dope Table 14, solvent composition 74/26): 0 kcal/mol
Stabilization by solids in the system (in words) ([3]; case c: only the plasticizer present in the system): is stabilized
Heat of solution ΔH0 ([3]; dichloromethane/methanol 50/50 wt %): 6.16 kcal/mol
Heat of solution ΔH0 ([3]; dichloromethane/methanol 74/26 wt %): 6.97 kcal/mol
Heat of solution ΔH0 ([3]; dichloromethane/methanol 87/13 wt %): 7.5 kcal/mol
Heat of solution ΔH0 ([3]; dichloromethane/methanol 92/8 wt %): 7.21 kcal/mol
Heat of solution ΔH0 ([3]; dichloromethane/methanol 100/0 wt %): 6.64 kcal/mol
SMILES: COc1ccc(Nc2nc(Nc3cccc(C)c3)nc(Nc3cccc(C)c3)n2)cc1 [Example Compound I-(2)]
